Among the data in US20240383872A1, “NOVEL PYRIDINE AND PYRAZINE COMPOUNDS AS INHIBITORS OF CANNABINOID RECEPTOR 2” (HOFFMANN-LA ROCHE INC., priority 2018, published 2024) are Ki values, retold here.

The Ki is a measure of affinity in units of concentration, obtained from inhibition or displacement.

In the experiment the target is human CB2 receptor (CNR2) (Homo sapiens (Human), UniProt P34972). In words: Radioligand binding assay, human CB2. The settings on record: HEK cell membranes expressing human CNR2, [3H]-CP-55,940 radioligand. The procedure: The affinity of the compounds of the invention for cannabinoid CB1 receptors was determined using recommended amounts of membrane preparations (PerkinElmer) of human embryonic kidney (HEK) cells expressing the human CNRI or CNR2 receptors in conjunction with 1.5 or 2.6 nM [3H]-CP-55,940 (Perkin Elmer) as radioligand, respectively. Binding was performed in binding buffer (50 mM Tris, 5 mM MgCl2, 2.5 mM EDTA, and 0.5% (wt/vol) fatty acid free BSA, pH 7.4 for CB1 receptor and 50 mM Tris, 5 mM MgCl2, 2.5 mM EGTA, and 0.1% (wt/vol) fatty acid free BSA, pH 7.4 for CB2 receptor) in a total volume of 0.2 ml for 1 h at 30° C. shaking. The reaction was terminated by rapid filtration through microfiltration plates coated with 0.5% polyethylenimine (UniFilter GF/B filter plate; Packard). Bound radioactivity was analyzed for Ki using nonlinear regression analysis (Activity Base, ID Business Solution, Limited), with the Kd values for [3H]CP55,940 determined from saturation experiments. The compounds of formula (I) show an excellent affinity for the CB2 receptor.
Chain of human CB2 receptor (CNR2) (P34972 whole entry): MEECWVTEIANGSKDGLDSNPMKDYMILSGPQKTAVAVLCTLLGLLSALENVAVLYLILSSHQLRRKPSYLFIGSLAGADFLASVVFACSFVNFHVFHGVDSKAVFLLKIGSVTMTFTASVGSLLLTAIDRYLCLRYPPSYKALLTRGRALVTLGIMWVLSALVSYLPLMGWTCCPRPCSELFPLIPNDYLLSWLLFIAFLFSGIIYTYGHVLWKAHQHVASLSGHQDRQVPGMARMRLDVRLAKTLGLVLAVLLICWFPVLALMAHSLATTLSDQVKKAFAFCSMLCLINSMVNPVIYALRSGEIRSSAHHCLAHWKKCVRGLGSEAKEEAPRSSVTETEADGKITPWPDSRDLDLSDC
The compounds according to formula (I) have an activity in the above assay (Ki) between 0.5 nM and 10 μM. Particular compounds of formula (I) have an activity in the above assay (Ki) between 0.5 nM and 3 μM. Other particular compounds of formula (I) have an activity in the above assay (Ki) between 0.5 nM and 100 nM.
Take `CCC(CC)(NC(=O)c1ccc(N2CC(OC)C2)c(OCC2CC2)n1)C(=O)OCF` [Example 1, Fluoromethyl 2-{[6-(cyclopropylmethoxy)-5-(3-methoxyazetidin-1-yl)pyridine-2-carbonyl]amino}-2-ethylbutanoate]: the Ki was determined as 2 nM. That is a single-digit nanomolar value.

As to `CCC(CC)(NC(=O)c1ccc(N2CC(OC)C2)c(OCC2CC2)n1)C(=O)OCCF` [Example 2, 2-Fluoroethyl 2-{[6-(cyclopropylmethoxy)-5-(3-methoxyazetidin-1-yl)pyridine-2-carbonyl]amino}-2-ethylbutanoate], the affinity, expressed as Ki, was 2 nM. That is a single-digit nanomolar value.

On to `CCC(CC)(NC(=O)c1ccc(N2CC(OC)C2)c(OCC2CC2)n1)C(=O)OCCCF` [Example 3, 3-Fluoropropyl 2-{[6-(cyclopropylmethoxy)-5-(3-methoxyazetidin-1-yl)pyridine-2-carbonyl]amino}-2-ethylbutanoate], for which the Ki stood at 6 nM.

Consider `CCC(CC)(NC(=O)c1ccc(N2CC(F)(F)C2)c(OCC2CC2)n1)C(=O)OCF` [Example 4, Fluoromethyl 2-{[6-(cyclopropylmethoxy)-5-(3,3-difluoroazetidin-1-yl)pyridine-2-carbonyl]amino}-2-ethylbutanoate], for which the Ki worked out at 6 nM. This counts as single-digit nanomolar.

Take `CCC(CC)(NC(=O)c1ccc(N2CC(F)(F)C2)c(OCC2CC2)n1)C(=O)OCCF` [Example 5, 2-Fluoroethyl 2-{[6-(cyclopropylmethoxy)-5-(3,3-difluoroazetidin-1-yl)pyridine-2-carbonyl]amino}-2-ethylbutanoate]: the affinity corresponds to a Ki of 7 nM.

As to `CCC(CC)(NC(=O)c1ccc(N2CC(F)(F)C2)c(OCC2CC2)n1)C(=O)OCCCF` [Example 6, 3-Fluoropropyl 2-{[6-(cyclopropylmethoxy)-5-(3,3-difluoroazetidin-1-yl)pyridine-2-carbonyl]amino}-2-ethylbutanoate], the Ki stood at 19 nM.

`CCC(CC)(NC(=O)c1ccc(N2CCCC2)c(OCC2CC2)n1)C(=O)OCCCF` [Example 7, 3-Fluoropropyl 2-{[6-(cyclopropylmethoxy)-5-(pyrrolidin-1-yl)pyridine-2-carbonyl]amino}-2-ethylbutanoate] came in with an inhibition constant (Ki) of 5 nM.

Compound `CCC(CC)(NC(=O)c1ccc(N2CCCC2)c(OCC2CC2)n1)C(=O)OCF` [Example 8, 3- Fluoromethyl 2-{[6-(cyclopropylmethoxy)-5-(pyrrolidin-1-yl)pyridine-2-carbonyl]amino}-2-ethylbutanoate] displayed a Ki of 2 nM. Against the preceding compound, the Ki is about 2.5-fold lower.

In the case of `CCC(CC)(NC(=O)c1ccc(N2CCCC2)c(OCC2CC2)n1)C(=O)OCCF` [Example 9, 2-Fluoroethyl 2-{[6-(cyclopropylmethoxy)-5-(pyrrolidin-1-yl)pyridine-2-carbonyl]amino}-2-ethylbutanoate], the affinity corresponds to a Ki of 3 nM.

The compound `COC1CN(c2ccc(C(=O)N[C@@H](CC(C)C)C(=O)OCF)nc2OCC2CC2)C1` [Example 10, Fluoromethyl N-[6-(cyclopropylmethoxy)-5-(3-methoxyazetidin-1-yl)pyridine-2-carbonyl]-L-leucinate] showed a Ki of 336 nM.

In turn, `COC1CN(c2ccc(C(=O)N[C@@H](CC(C)C)C(=O)OCCF)nc2OCC2CC2)C1` [Example 11, 2-Fluoroethyl N-[6-(cyclopropylmethoxy)-5-(3-methoxyazetidin-1-yl)pyridine-2-carbonyl]-L-leucinate] returned a Ki of 15 nM.

As for `COC1CN(c2ccc(C(=O)N[C@@H](CC(C)C)C(=O)OCCCF)nc2OCC2CC2)C1` [Example 12, 3-Fluoropropyl N-[6-(cyclopropylmethoxy)-5-(3-methoxyazetidin-1-yl)pyridine-2-carbonyl]-L-leucinate], the Ki is 46 nM.

The compound `CC(C)C[C@H](NC(=O)c1ccc(N2CCCC2)c(OCC2CC2)n1)C(=O)OCF` [Example 13, Fluoromethyl N-[6-(cyclopropylmethoxy)-5-(pyrrolidin-1-yl)pyridine-2-carbonyl]-L-leucinate] registered a Ki of 63 nM.

Take `CC(C)C[C@H](NC(=O)c1ccc(N2CCCC2)c(OCC2CC2)n1)C(=O)OCCF` [Example 14, 2-Fluoroethyl N-[6-(cyclopropylmethoxy)-5-(pyrrolidin-1-yl)pyridine-2-carbonyl]-L-leucinate]: the affinity, expressed as Ki, was 15 nM.

Compound `CC(C)C[C@H](NC(=O)c1ccc(N2CCCC2)c(OCC2CC2)n1)C(=O)OCCCF` [Example 15, 3-Fluoropropyl N-[6-(cyclopropylmethoxy)-5-(pyrrolidin-1-yl)pyridine-2-carbonyl]-L-leucinate] showed a Ki of 40 nM. This Ki lies about 2.7-fold higher than the previous one.

Compound `CC(C)C[C@@H](COCF)NC(=O)c1ccc(N2CCCC2)c(OCC2CC2)n1` [Example 16, 6-(Cyclopropylmethoxy)-N-[(2S)-1-(fluoromethoxy)-4-methylpentan-2-yl]-5-(pyrrolidin-1-yl)pyridine-2-carboxamide] came in with a Ki of 8 nM.

`CC(C)C[C@@H](COCCF)NC(=O)c1ccc(N2CCCC2)c(OCC2CC2)n1` [Example 17, 6-(Cyclopropylmethoxy)-N-[(2S)-1-(2-fluoroethoxy)-4-methylpentan-2-yl]-5-(pyrrolidin-1-yl)pyridine-2-carboxamide] yielded a Ki of 10 nM.

Turning to `CC(C)C[C@@H](COCCCF)NC(=O)c1ccc(N2CCCC2)c(OCC2CC2)n1` [Example 18, 6-(Cyclopropylmethoxy)-N-[(2S)-1-(3-fluoropropoxy)-4-methylpentan-2-yl]-5-(pyrrolidin-1-yl) pyridine-2-carboxamide], the inhibition constant Ki is 40 nM.

`CC(C)[C@@H](COCF)NC(=O)c1ccc(N2CCCC2)c(OCC2CC2)n1` [Example 19, 6-(Cylopropylmethoxy)-N-[(2S)-1-(fluoromethoxy)-3-methylbutan-2-yl]-5-(pyrrolidin-1-yl)pyridine-2-carboxamide]: the Ki worked out at 70 nM.

`CC(C)[C@@H](COCCF)NC(=O)c1ccc(N2CCCC2)c(OCC2CC2)n1` [Example 20, 6-(Cyclopropylmethoxy)-N-[(2S)-1-(2-fluoroethoxy)-3-methylbutan-2-yl]-5-(pyrrolidin-1-yl)pyridine-2-carboxamide] had a Ki of 60 nM.

Turning to `CC(C)[C@@H](COCCCF)NC(=O)c1ccc(N2CCCC2)c(OCC2CC2)n1` [Example 21, 6-(Cyclopropylmethoxy)-N-[(2S)-1-(3-fluoropropoxy)-3-methylbutan-2-yl]-5-(pyrrolidin-1-yl)pyridine-2-carboxamide], the inhibitory constant (Ki) was determined as 156 nM.

The compound `C[C@@H](COCF)NC(=O)c1ccc(N2CCCC2)c(OCC2CC2)n1` [Example 22, 6-(Cyclopropylmethoxy)-N-[(2S)-1-(fluoromethoxy)propan-2-yl]-5-(pyrrolidin-1-yl)pyridine-2-carboxamide] yielded a Ki of 787 nM.

In turn, `C[C@@H](COCCF)NC(=O)c1ccc(N2CCCC2)c(OCC2CC2)n1` [Example 23, 6-(Cyclopropylmethoxy)-N-[(2S)-1-(2-fluoroethoxy)propan-2-yl]-5-(pyrrolidin-1-yl)pyridine-2-carboxamide] returned a Ki of 490 nM.

In turn, `C[C@@H](COCCCF)NC(=O)c1ccc(N2CCCC2)c(OCC2CC2)n1` [Example 24, 6-(Cyclopropylmethoxy)-N-[(2S)-1-(3-fluoropropoxy)propan-2-yl]-5-(pyrrolidin-1-yl)pyridine-2-carboxamide] registered a Ki of 671 nM. The Ki values of the last two compounds are within 1.5-fold of each other.

`CC(C)C[C@@H](COCCF)NC(=O)c1ccc(N2CC(F)(F)C2)c(OCC2CC2)n1` [Example 26, 6-(Cyclopropylmethoxy)-5-(3,3-difluoroazetidin-1-yl)-N-[(2S)-1-(2-fluoroethoxy)-4-methylpentan-2-yl]pyridine-2-carboxamide] displayed a Ki of 24 nM.

`COC1CN(c2ccc(C(=O)N[C@H](COCCF)CC(C)C)nc2OCC2CC2)C1` [Example 27, 6-(Cyclopropylmethoxy)-N-[(2S)-1-(2-fluoroethoxy)-4-methylpentan-2-yl]-5-(3-methoxyazetidin-1-yl) pyridine-2-carboxamide] registered a Ki of 18 nM.

In turn, `COC1CN(c2ccc(C(=O)N[C@H](COCCCF)CC(C)C)nc2OCC2CC2)C1` [Example 28, 6-(Cyclopropylmethoxy)-N-[(2S)-1-(3-fluoropropoxy)-4-methylpentan-2-yl]-5-(3-methoxyazetidin-1-yl) pyridine-2-carboxamide] came in with a Ki of 31 nM.

As to `COC1CN(c2ccc(C(=O)N[C@H](COCF)C(C)C)nc2OCC2CC2)C1` [Example 29, 6-(Cyclopropylmethoxy)-N-[(2S)-1-(fluoromethoxy)-3-methylbutan-2-yl]-5-(3-methoxyazetidin-1-yl) pyridine-2-carboxamide], the affinity corresponds to a Ki of 269 nM. This Ki lies about 8.7-fold higher than the previous one.

`COC1CN(c2ccc(C(=O)N[C@H](COCCF)C(C)C)nc2OCC2CC2)C1` [Example 30, 6-(Cyclopropylmethoxy)-N-[(2S)-1-(2-fluoroethoxy)-3-methylbutan-2-yl]-5-(3-methoxyazetidin-1-yl) pyridine-2-carboxamide] had a Ki of 165 nM.

`COC1CN(c2ccc(C(=O)N[C@H](COCCCF)C(C)C)nc2OCC2CC2)C1` [Example 31, 6-(Cyclopropylmethoxy)-N-[(2S)-1-(3-fluoropropoxy)-3-methylbutan-2-yl]-5-(3-methoxyazetidin-1-yl) pyridine-2-carboxamide]: the Ki was found to be 247 nM.
